Results published in patent publication US8129355B2, “Ketone ligands for modulating the expression of exogenous genes via an ecdysone receptor complex” (priority 2002, dated 2012).
pEC50: −log10 of the molar value. Like-named read-outs stand apart in the source and are kept apart here.

Legend:
[1] = target: T1, GAL4 DBD-CfEcR(DEF)/VP16AD-MmRXRE (Choristoneura fumiferana, UniProt O77240); assay: cell-based; conditions: for 13B3 Rel Max FI: maximum fold induction at any concentration relative to that of GS-E ligand
T1 sequence (O77240 1-513): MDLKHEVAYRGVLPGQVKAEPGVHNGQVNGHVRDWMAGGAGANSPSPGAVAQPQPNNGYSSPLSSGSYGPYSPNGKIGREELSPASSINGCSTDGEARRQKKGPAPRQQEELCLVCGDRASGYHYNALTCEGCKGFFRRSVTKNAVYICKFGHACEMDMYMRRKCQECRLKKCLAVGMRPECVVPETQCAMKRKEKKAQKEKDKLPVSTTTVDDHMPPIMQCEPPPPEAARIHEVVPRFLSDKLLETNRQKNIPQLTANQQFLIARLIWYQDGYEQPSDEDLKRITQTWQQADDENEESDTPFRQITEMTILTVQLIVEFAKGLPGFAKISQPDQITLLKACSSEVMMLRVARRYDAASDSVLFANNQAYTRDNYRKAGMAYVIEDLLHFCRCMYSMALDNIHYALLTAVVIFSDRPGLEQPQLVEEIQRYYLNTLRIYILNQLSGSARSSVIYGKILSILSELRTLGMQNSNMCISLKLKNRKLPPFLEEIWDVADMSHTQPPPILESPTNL
From the text: GAL4 DBD-CfEcR(DEF)/VP16AD-MmRXRE: The wild-type D, E, and F domains from spruce budworm Choristoneura fumiferana EcR (“CfEcR-DEF”; SEQ ID NO: 1) were fused to a GAL4 DNA binding domain (“Gal4 DBD1-147”; nucleotides 31 to 471 of SEQ ID NO: 2) and placed under the control of the SV40e promoter of pM vector (PT3119-5, Clontech, Palo Alto, Calif.). The D and E domains from Mus Musculus RXR (“MmRXR-DE”; SEQ ID NO: 10) were fused to the transactivation domain from VP16 (“VP16AD”; SEQ ID NO: 5) and placed under the control of the SV40e promoter of the pVP16 vector (PT3127-5, Clontech, Palo Alto, Calif.).
CHO cells were transienty transfected with transcription cassettes for GAL4 DBD-CfEcR(DEF) and for VP16AD-MmRXRE controlled by SV40e promoters. Stably transfected cells were selected using Hygromycin. Individually isolated CHO cell clones were transiently transfected with a GAL4 RE-luciferase reporter (pMR-Luc, Stratagene, La Jolla, Calif.). The 13B3 clone was selected using Zeocin.
Cells were trypsinized and diluted to a concentration of 2.5×10^4 cells mL. 100 μL of cell suspension was placed in each well of a 96 well plate and incubated at 37° C. under 5% CO2 for 24 h. Ligand stock solutions were prepared in DMSO and diluted 300 fold for all treatments. Dose response testing consisted of 8 concentrations ranging from 33 μM to 0.01 μM.
Luciferase reporter gene expression was measured 48 h after cell treatment using Bright-Glo™ Luciferase Assay System from Promega (E2650). Luminescence was detected at room temperature using a Dynex MLX microtiter plate luminometer.
Fold inductions were calculated from single dose testing by dividing relative light units (RLU) in ligand treated cells by RLU in DMSO treated cells. BC50s were calculated from dose response data using a three-parameter logistic model.

[2] = target: T2, Bombyx mori EcR (VP16 fusion, switch construct CVBE) with 6XEcRE LacZ reporter (Bombyx mori, UniProt P49881); assay: Z3 assay: β-galactosidase (LacZ) reporter gene fold induction in stably transformed human 293 kidney cells (clone Z3); format: cell-based
T2 construct: expressed in transfected cells; host or cells: Human 293 kidney (HEK-293) cells, retrovirally infected, clone Z3
T2 sequence (P49881 86-606 limits assumed): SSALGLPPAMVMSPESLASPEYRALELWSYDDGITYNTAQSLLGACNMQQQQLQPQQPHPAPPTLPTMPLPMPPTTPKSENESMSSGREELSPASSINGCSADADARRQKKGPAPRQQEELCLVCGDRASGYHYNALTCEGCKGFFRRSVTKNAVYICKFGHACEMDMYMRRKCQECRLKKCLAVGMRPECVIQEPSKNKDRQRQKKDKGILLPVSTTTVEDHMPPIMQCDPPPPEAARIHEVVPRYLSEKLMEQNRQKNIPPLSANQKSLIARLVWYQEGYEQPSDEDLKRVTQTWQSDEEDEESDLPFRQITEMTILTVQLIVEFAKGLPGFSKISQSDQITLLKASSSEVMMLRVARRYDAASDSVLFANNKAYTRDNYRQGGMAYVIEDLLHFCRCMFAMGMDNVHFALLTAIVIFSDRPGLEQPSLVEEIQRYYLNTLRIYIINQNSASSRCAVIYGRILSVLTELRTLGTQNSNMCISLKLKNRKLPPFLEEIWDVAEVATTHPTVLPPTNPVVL
T2 sequence (P19793 1-462 partner): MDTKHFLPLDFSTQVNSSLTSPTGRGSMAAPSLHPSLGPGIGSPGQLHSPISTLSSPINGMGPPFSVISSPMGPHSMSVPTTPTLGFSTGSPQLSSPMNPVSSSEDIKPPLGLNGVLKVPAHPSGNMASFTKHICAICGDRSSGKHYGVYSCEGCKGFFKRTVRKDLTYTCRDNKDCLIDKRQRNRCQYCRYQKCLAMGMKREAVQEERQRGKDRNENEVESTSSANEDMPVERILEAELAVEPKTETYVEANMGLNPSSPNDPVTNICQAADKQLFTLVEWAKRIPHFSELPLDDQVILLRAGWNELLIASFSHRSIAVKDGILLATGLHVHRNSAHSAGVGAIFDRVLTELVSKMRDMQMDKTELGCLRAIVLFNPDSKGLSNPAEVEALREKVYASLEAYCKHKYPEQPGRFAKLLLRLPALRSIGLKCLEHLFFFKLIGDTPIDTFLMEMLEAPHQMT
From the text: Dr. F. Gage provided a population of stably transformed cells containing CVBE and 6XEcRE as described in Suhr, S. T., Gil, E. B., Senut M. C., Gage, F. H. (1998) Proc. Natl. Acad. Sci. USA 95, 7999-804. Human 293 kidney cells, also referred to as HEK-293 cells, were sequentially infected with retroviral vectors encoding first the switch construct CVBE, and subsequently the reporter construct 6XEcRE Lac Z. The switch construct contained the coding sequence for amino acids 26-546 from Bombyx mori EcR (BE) (Iatrou) inserted in frame and downstream of the VP16 transactivation domain (VBE). A synthetic ATG start codon was placed under the control of cytomegalovirus (CVBE) immediate early promoter and flanked by long terminal repeats (LTR). The reporter construct contained six copies of the ecdysone response element (EcRE) binding site placed upstream of LacZ and flanked on both sides with LTR sequences (6XEcRE).
Dilution cloning was used to isolate individual clones. Clones were selected using 450 ug/mL G418 and 100 ng/mL puromycin. Individual clones were evaluated based on their response in the presence and absence of test ligands. Clone Z3 was selected for screening and SAR purposes.
Human 293 kidney cells stably transformed with CVBE and 6XEcRE lack were maintained in Minimum Essential Medium (Mediates, 10-010-CV) containing 10% FBS (Life Technologies, 26140-087), […] G418 (Mediates, 30-234-CR), and […] (Sigma, P-7255), at 37° C. in an atmosphere containing 5% CO2 and were subculture when they reached 75% confluence.
Z3 cells were seeded into 96-well tissue culture plates at a concentration of 2.5×10^3 cells per well and incubated at 37° C. in 5% CO2 for twenty-four hours. Stock solutions of ligands were prepared in DMSO. Ligand stock solutions were diluted 100 fold in media and 50 μL of this diluted ligand solution (33 μM) was added to cells. The final concentration of DMSO was maintained at […] in both controls and treatments.
Reporter gene expression was evaluated 48 hours after treatment of cells, β-galactosidase activity was measured using Gal Screen™ bioluminescent reporter gene assay system from Tropix (GSY1000).
Flanking both constructs are long terminal repeats, G418 and puromycin are selectable markers, CMV is the cytomegalovirus promoter, VBE is coding sequence for amino acids 26-546 from Bombyx mori EcR inserted downstream of the VP16 transactivation domain, 6×EcRE is six copies of the ecdysone response element, lacZ encodes for the reporter enzyme β-galactosidase. Suhr, S. T., Gil, E. B., Senut M. C., Gage, F. H. (1998) Proc. Natl. Acad. Sci. USA 95, 7999-804. Swevers, L., Drevet, J. R., Lunke, M. D., Iatrou, K. (1995) Insect Biochem. Mol. Biol. 25, 857-866.

[3] = single dose 33 μM; ligand treated / DMSO treated cells
[4] = maximum fold induction at any concentration relative to that of GS-E ligand

| SMILES | Fold Induction Average, 13B3 Assay (33 μM) [1] | Fold Induction Average, Z3 Assay (33 μM) [2, 3] | further results |
| --- | --- | --- | --- |
| Cc1cccc(C(=O)NC(C(=O)c2ccccc2)C(C)(C)C)c1C (centres unmarked) [Example 97] | 0 | 1 | – |
| COc1cccc(C(=O)C2(NC(=O)c3cccc(OC)c3C)CC2)c1 [Example 99] | 0 | 1 | – |
| COc1cccc(C(=O)NC2(C(=O)c3cccc(C)c3)CCC2)c1C [Example 6] | – | – | pEC50 [1]: < 4.48; fold induction at 33 µM ([1]; CHO, read-out: Fold Induction Average, 13B3 Assay (33 μM)): 1; 13B3 Rel Max FI [1]: 0.00; Z3 Rel Max FI [2, 4]: 0.05; fold induction at 33 µM ([2]; read-out: Fold Induction Average, Z3 Assay (33 μM)): 82; CC50 ([2]; read-out: Z3 LC50; average; dose response, three-parameter logistic model): 10.7 µM |
| COc1cccc(C(=O)NC(C(=O)c2cccc(C)c2)C(C)(C)C)c1C (centres unmarked) [Example 113] | 1 | 4 | – |
| COc1cccc(C(=O)NC2(C(=O)c3ccccc3C)CC2)c1C [Example 101] | 2 | 2 | – |
| Cc1ccccc1C(=O)NC(C)(C)C(=O)c1ccccc1 [Example 105] | 3 | 1 | – |
| COc1ccccc1C(=O)NC(C)(C)C(=O)c1cc(C)cc(C)c1 [Example 119] | 0 | 1 | – |
| CCC(CC)(NC(=O)c1cccc(OC)c1C)C(=O)c1ccc(OC)cc1 [Example 58] | 4 | 4 | – |
| COc1cccc(C(=O)NC(C)(Cc2ccccc2)C(=O)c2ccc(C)cc2)c1C (centres unmarked) [Example 16] | 0 | 10 | – |
| CCc1ccc(C(=O)NC(C)(C)C(=O)c2ccccc2)cc1 [Example 108] | 1 | 2 | – |
| COc1cccc(C(=O)NC(C)(CC(C)C)C(=O)c2ccc(F)c(C)c2)c1C (centres unmarked) [Example 54] | 0 | 41 | – |
| COc1cccc(C(=O)NC2(C(=O)c3ccc(F)c(C)c3)CC2)c1C [Example 19] | 0 | 6 | – |
| COc1cccc(C(=O)NC(C)(C(C)=O)C(C)C)c1C (centres unmarked) [Example 112] | 2 | 1 | – |
| Cc1c(C(=O)NC2(C(=O)c3ccccc3)CCCC2)ccc2c1OCO2 [Example 23] | 2 | 32 | – |
| COc1cccc(C(=O)NC2(C(=O)c3ccc4c(c3)OCO4)CCCCC2)c1C [Example 47] | 3 | 21 | – |
| CC(C)(NC(=O)c1ccc2c(c1)OCO2)C(=O)c1ccccc1 [Example 106] | 3 | 1 | – |
| CCC(CC)(NC(=O)c1cccc(OC)c1C)C(=O)c1ccccc1C [Example 36] | 0 | 4 | – |
| COc1cccc(C(=O)NC2(C(=O)c3cccc(C)c3)CCN(C(=O)OC(C)(C)C)CC2)c1C [Example 109] | 0 | 3 | – |
| COc1cccc(C(=O)NC(C)(Cc2ccccc2)C(=O)c2cccc(C)c2)c1C (centres unmarked) [Example 8] | 2 | 15 | – |
| COc1cccc(C(=O)NC2(C(=O)c3ccc(C)cc3)CC2)c1C [Example 24] | 87 | 11 | – |
| COc1cccc(C(=O)NC(C(=O)c2cccc(C)c2)(c2ccccc2)C(C)C)c1C (centres unmarked) [Example 57] | 0 | 8 | – |
| Cc1nc2ncc(C(=O)NC3(C(=O)c4ccccc4)CCCC3)c(C)n2n1 [Example 103] | 0 | – | – |
| CCc1ccc(C(=O)NC2(C(=O)c3ccccc3)CCCC2)cc1 [Example 3] | – | – | pEC50 [1]: < 4.48; 13B3 Rel Max FI [1]: 0.00 |
| COc1cccc(C(=O)C2(NC(=O)c3cccc(OC)c3C)CCCC2)c1 [Example 5] | – | – | pEC50 [1]: < 4.48; 13B3 Rel Max FI [1]: 0.02 |
| CCc1ccc(C(=O)NC2(C(=O)c3cc(C)cc(C)c3)CCCCC2)cc1 [Example 175] | – | – | CC50 ([2]; average; dose response, three-parameter logistic model; read-out: Z3 LC50): 1.51 µM; Z3 Rel Max FI [2, 4]: 0.63 |
